Experimental data as given in PubChem BioAssay (NCI).
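1) Cells in 96-well plates. 2) Compound, 48 h, 5 concentrations. 3) Linear interpolation between surrounding doses. 4) Unreached endpoint = highest concentration. Definition used: TGI = concentration required for complete inhibition of growth.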

Columns and labels:
Assay in all cases: NCI-60 cell line screen, 48 h
A549 NSCLC = system: A549 NSCLC
HL-60(TB) leukemia = system: HL-60(TB) leukemia
K-562 leukemia = system: K-562 leukemia
KM12 colon = system: KM12 colon
RPMI-8226 leukemia = system: RPMI-8226 leukemia
SK-MEL-2 melanoma = system: SK-MEL-2 melanoma
SR leukemia = system: SR leukemia
SW-620 colon = system: SW-620 colon
U251 CNS = system: U251 CNS
UACC-62 melanoma = system: UACC-62 melanoma

Structure (SMILES) | TGI (A549 NSCLC) [µM] | TGI (HL-60(TB) leukemia) [µM] | TGI (K-562 leukemia) [µM] | TGI (KM12 colon) [µM] | TGI (RPMI-8226 leukemia) [µM] | TGI (SK-MEL-2 melanoma) [µM] | TGI (SR leukemia) [µM] | TGI (SW-620 colon) [µM] | TGI (U251 CNS) [µM] | TGI (UACC-62 melanoma) [µM]
Fc1cccc2nc(-c3ccccc3)cc(OCc3ccccc3)c12 | > 100 | > 100 | > 100 | > 100 | > 100 | > 100 | > 100 | > 100 | > 100 | > 100
COc1cc(C(C#N)NNC(=O)c2ccccc2O)ccc1O (stereo not given) | > 100 | 19.4 | > 100 | > 100 | > 100 | > 100 | > 100 | > 100 | > 100 | 5.22
CN(C)c1ccc(C(c2ccc(N(C)C)cc2)c2ccc([N+](=O)[O-])cc2)cc1 | > 100 | > 100 | > 100 | > 100 | > 100 | > 100 | > 100 | > 100 | > 100 | > 100
CC1=Nn2c(nc3sc4c(c3c2=O)CCCC4)SC1 | > 100 | > 87.4 | > 100 | > 100 | > 100 | > 100 | > 100 | > 100 | > 100 | > 100
COc1cccc(C2c3cc4c(cc3OC(N3CCOCC3)C2C)OCO4)c1O (stereo not given) | 66.5 | 6.69 | 38.1 | 46.9 | 19.8 | 40.7 | 30.2 | > 75.2 | 12.7 | 40.2
Cc1ccc2c3c1O[C@H]1c4nc5ccccc5cc4C[C@@]4(O)[C@@H](C2)N(CC2CC2)CC[C@]314 | 26.8 | 26.1 | 23 | 35.6 | 25.4 | 35.5 | 50.9 | 18.3 | 18.7 | 23.5
COc1ccc(N=C/C=C/Nc2ccc(OC)cc2)cc1 | 25.2 | 8.45 | 31 | 9.55 | 30.4 | 31 | 11.2 | 5.48 | 10.2 | 27.5
CC(=O)Oc1ccc2c(c1)CC[C@@H]1C2[C@@H](O[N+](=O)[O-])C[C@@]2(C)C1CC[C@@H]2O (stereo not given in full) | > 100 | 34.4 | 72.1 | > 100 | 69.7 | > 100 | > 88.1 | > 100 | > 100 | > 100
NC1CCC(c2cc3ccccc3s2)(N2CCCCC2)CC1 (stereo not given) | 8.46 | 4.58 | 3.44 | 3.78 | 2.28 | 2.95 | 3.38 | 3.2 | 3.05 | 6.25
